Reference: PMC12316308, “Interactions of substrates and phosphinyl containing inhibitors with bacterial and human zinc proteases” (PLOS One, 2025)
Like-named read-outs stand apart in the source and are kept apart here. Where a SMILES comes first, the peptide text is derived from it. [ ]: non-standard residue; d: D form. The star is where a group is joined. Dnp = O=[N+]([O-])c1ccc(*)c([N+](=O)[O-])c1; Mca = COc1ccc2c(CC(=O)*)cc(=O)oc2c1; Dap = NC[C@H](N)C(=O)O

Columns and labels:
[1] = biological target: T1, MMP-14 (Homo sapiens, UniProt P50281); set-up: method as in PMID 33757387; conditions: 1% DMSO; cited from earlier work
T1 construct: human MT1-MMP/MMP-14 (catalytic domain); purchased Calbiochem (San Diego, CA, USA)

[2] = biological target: T2, MMP-9(A) (Homo sapiens, UniProt P14780); set-up: method as in PMID 33757387; conditions: 1% DMSO; cited from earlier work
T2 construct: made in house; host or cells: Sf9 and High Five insect cells

[3] = biological target: T3, APMA activated MMP-9 (MMP-9(A)) (Homo sapiens, UniProt P14780); test: Enzyme inhibition kinetics, fluorogenic substrate ES001; type: biochemical; conditions: for inhibitory effect on enzymatic activity: 100 μM compound, in words; for Ki: read-out: Ki ± s.d. (converted)
T3 construct: made in house; host or cells: Sf9 and High Five insect cells
Procedure: (§1) The expression of recombinant full length proMMP-9 (rpMMP-9) in Sf9 and High Five insect cells and the purification were performed as previously described. The amount of proMMP-9 was estimated spectrophotometrically at 280 nm using ε280nm = […] [46] for the full length enzyme. Activation of the recombinant proMMP-9 was performed with APMA (auto-activation) and Mag-Trypsin as previously described, while the amount of active MMP-9 was determined by active site titration using galardin, also described previously.
(§2) Determination of reaction velocities. The substrate ES001 was used for APMA activated MMP-9 (MMP-9(A)), Mag-Trypsin activated MMP-9 (MMP-9(MT)) and MMP-14, while the substrate ES005 was used for ALN, PLN and TLN. The reaction velocities/initial rates (v) were determined at 37°C, at an excitation wavelength of 320 nm and an emission wavelength of 405 nm with a slit width of 10 nm using either a Perkin Elmer LS 50 Luminescence spectrometer and the FL WinLab Software Package (Perkin Elmer) or a Clario Star micro plate reader (CLARIOstar® BMG LABTECH).
(§3) The phosphinic compounds were dissolved in 100% DMSO to a final concentration of 10 mM. In all assays, a fixed substrate concentration of 4.0 µM was used in a total volume of 100 µL 0.1 M Hepes pH 7.5, 10 mM CaCl2, 0.005% Brij-35 and 1.0% DMSO. Fixed enzyme concentrations were as follows; 0.05 nM MMP-9(A), 0.05 nM MMP-9(MT), 1.0 nM MMP-14, 1.4 nM ALN, 0.5 nM PLN and 0.21 nM TLN. Time dependent inhibitory experiments, with and without 100 μM of phosphinic compounds, were performed as follows: Compounds were either pre-incubated with proteases for 15 and 30 minutes at room temperature before initiating the enzymatic reaction by adding the substrate, or not pre-incubated, meaning the reaction was initiated by adding the protease to the mixture of substrate and compound. Control tests without the compound present were performed under the same conditions. Reactions were monitored for 30 minutes at 37°C.
(§4) Determination of IC50 and Ki values. […] A fixed substrate concentration and the same enzyme and buffer conditions as described above were used. Enzymes, with or without inhibitors, were either pre-incubated for 30 minutes at room temperature or not pre-incubated, and initial rate assays were performed as described above. Assays were performed using a Clario Star microplate reader. The IC50 values with corresponding s.d. were calculated with GraphPad Prism 5 using equation 1 or 2, depending on the concentration range of the phosphinic compounds.
(§5) Equation 3 describe the relationship between IC50 and Ki values for substrate competitive inhibitors, considering the fixed substrate concentration and the enzyme’s Km value for the substrate: […]

[4] = biological target: T4, Mag-Trypsin activated MMP-9 (MMP-9(MT)) (Homo sapiens, UniProt P14780); test: as above; type: biochemical; conditions: for inhibitory effect on enzymatic activity: 100 μM compound, in words; for Ki: read-out: Ki ± s.d. (converted)
T4 construct: made in house; host or cells: Sf9 and High Five insect cells
Procedure: as §1, §2, §3, §4, §5

[5] = biological target: T5, human MT1-MMP/MMP-14 (catalytic domain) (Homo sapiens, UniProt P50281); test: as above; type: biochemical; conditions: for inhibitory effect on enzymatic activity: in words; for Ki: read-out: Ki ± s.d. (converted)
T5 construct: human MT1-MMP/MMP-14 (catalytic domain); purchased Calbiochem (San Diego, CA, USA)
Procedure: as §2, §3, §4, §5

[6] = biological target: T6, pseudolysin (PLN, LasB) (Pseudomonas aeruginosa, UniProt P14756); test: Enzyme inhibition kinetics, fluorogenic substrate ES005; type: biochemical; conditions: for inhibitory effect on enzymatic activity: 100 μM compound, in words
T6 construct: purchased Calbiochem (San Diego, CA, USA)
Procedure: as §2, §3, §4, §5

[7] = biological target: T7, thermolysin (TLN) (Bacillus thermoproteolyticus, UniProt P00800); test: as above; type: biochemical; conditions: for inhibitory effect on enzymatic activity: 100 μM compound, in words; for Ki: read-out: Ki ± s.d.
T7 construct: purchased Calbiochem (San Diego, CA, USA)
Procedure: as §2, §3, §4, §5

[8] = biological target: T8, aureolysin (ALN) (Staphylococcus aureus, UniProt P81177); test: as above; type: biochemical; conditions: for inhibitory effect on enzymatic activity: 100 μM compound, in words
T8 construct: purchased BioCentrum Ltd (Kraków, Poland)
Procedure: as §2, §3, §4, §5

[9] = biological target: T7, thermolysin (TLN); test: MALDI-TOF MS analysis of ES005 cleavage; type: biochemical; conditions: One μM galardin, 100 nM TLN
Procedure: MALDI-TOF MS spectra were recorded for samples containing different enzyme and substrate concentrations at various time points using an Autoflex Speed instrument (Bruker Daltonik GmbH, Leipzig, Germany) equipped with a 355-nm nitrogen laser for desorption and ionization. The ionization matrix, HCCA, was dissolved to 10 mg/mL in a standard solvent (50% MeCN, 47.5% MQ-water, and 2.5% TFA) by vigorous vortexing. Prior to the MALDI run, a main buffer (0.1 M Hepes, pH 7.5, 10 mM CaCl2) was used to dilute TLN to stock concentrations of 1000, 100 and 50 nM, ES005–500 µM, and galardin to 10 µM. All stocks solutions were kept on ice. For the 0 min incubation, 1 µL TLN and 1 µL galardin were preincubated at 37°C in 8 µL of the main buffer for 10 min before adding 1 µL of ES005. For all other time points, 1 µL of ES005 was added to tubes containing 8 µL buffer and 1 µL of TLN at different concentrations, followed by incubation at 37°C. At each timepoint (0, 1, 3, 5, 10, 20, 30, 60, 120 min), 1 µL of galardin was added to stop enzyme activity. After the final incubation, 1 µL aliquots from each timepoint were mixed with an equal volume of HCCA and spotted onto a MALDI plate. […] The resulting mass spectra were analysed using flexAnalysis software (v3.3, Bruker).

T6 sequence (P14756 198-498): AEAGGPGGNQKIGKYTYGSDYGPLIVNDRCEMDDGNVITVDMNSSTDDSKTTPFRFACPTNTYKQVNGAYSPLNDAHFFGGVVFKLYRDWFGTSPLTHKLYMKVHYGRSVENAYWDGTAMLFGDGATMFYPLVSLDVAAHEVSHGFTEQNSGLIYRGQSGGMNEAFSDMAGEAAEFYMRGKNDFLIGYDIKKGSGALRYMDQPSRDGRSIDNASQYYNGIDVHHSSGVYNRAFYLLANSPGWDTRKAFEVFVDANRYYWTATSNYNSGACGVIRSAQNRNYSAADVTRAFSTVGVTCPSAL
T7 sequence (P00800 233-548): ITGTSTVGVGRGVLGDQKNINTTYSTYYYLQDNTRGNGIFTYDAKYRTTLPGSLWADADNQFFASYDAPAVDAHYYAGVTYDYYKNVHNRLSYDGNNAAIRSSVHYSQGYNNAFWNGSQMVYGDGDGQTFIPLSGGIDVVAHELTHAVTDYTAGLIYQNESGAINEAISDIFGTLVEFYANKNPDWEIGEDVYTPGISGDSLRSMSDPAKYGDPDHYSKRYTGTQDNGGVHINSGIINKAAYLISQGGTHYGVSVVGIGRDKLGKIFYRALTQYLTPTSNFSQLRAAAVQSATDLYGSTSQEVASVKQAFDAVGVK
T8 sequence (P81177 209-509): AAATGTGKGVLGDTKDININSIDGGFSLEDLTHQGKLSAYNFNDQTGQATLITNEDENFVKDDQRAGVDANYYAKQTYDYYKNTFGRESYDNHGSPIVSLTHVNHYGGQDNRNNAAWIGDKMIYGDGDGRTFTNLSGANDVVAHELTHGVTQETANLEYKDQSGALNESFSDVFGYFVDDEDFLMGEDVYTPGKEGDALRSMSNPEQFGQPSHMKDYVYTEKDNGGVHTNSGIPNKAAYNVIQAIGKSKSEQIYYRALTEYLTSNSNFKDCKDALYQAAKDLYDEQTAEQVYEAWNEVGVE
T4 sequence (P14780 107-707 limits assumed): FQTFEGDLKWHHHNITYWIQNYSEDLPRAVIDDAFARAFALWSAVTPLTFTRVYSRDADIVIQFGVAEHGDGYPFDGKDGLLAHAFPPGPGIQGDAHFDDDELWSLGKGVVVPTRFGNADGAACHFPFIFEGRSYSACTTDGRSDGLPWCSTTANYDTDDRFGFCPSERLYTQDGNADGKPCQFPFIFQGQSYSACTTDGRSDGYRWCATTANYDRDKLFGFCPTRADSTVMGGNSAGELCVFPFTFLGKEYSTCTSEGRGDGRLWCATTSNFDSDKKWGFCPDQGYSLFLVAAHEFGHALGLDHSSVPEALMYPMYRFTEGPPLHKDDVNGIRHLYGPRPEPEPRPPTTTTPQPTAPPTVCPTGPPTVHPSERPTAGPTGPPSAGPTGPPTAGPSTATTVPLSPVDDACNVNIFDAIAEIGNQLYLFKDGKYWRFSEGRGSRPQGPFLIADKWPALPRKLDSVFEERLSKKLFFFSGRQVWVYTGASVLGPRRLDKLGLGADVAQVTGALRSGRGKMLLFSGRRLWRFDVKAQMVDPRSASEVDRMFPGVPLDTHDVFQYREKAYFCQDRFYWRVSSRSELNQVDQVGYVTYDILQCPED
T3 sequence (P14780 107-707 limits assumed): as above
T2 sequence (P14780 107-707 limits assumed): as above

Row | SMILES | inhibitory effect on enzymatic activity ([3]; MMP-9(A)) | inhibitory effect on enzymatic activity ([4]; MMP-9(MT)) | inhibitory effect on enzymatic activity ([5]; MMP-14, 100 μM compound) | inhibitory effect on enzymatic activity ([6]; PLN) | inhibitory effect on enzymatic activity ([7]; TLN) | inhibitory effect on enzymatic activity ([8]; ALN) | Ki [3] [µM] | Ki [4] [µM] | Ki [5] [µM] | Ki [6] [µM] | Ki [7] [µM] | Ki [8] [µM] | further results
1 | COc1ccc2c(CC(=O)N3CCC[C@H]3C(=O)N[C@@H](CC(C)C)C(=O)NCC(=O)N[C@@H](CC(C)C)C(=O)N[C@@H](CNc3ccc([N+](=O)[O-])cc3[N+](=O)[O-])C(=O)N[C@@H](C)C(=O)N[C@@H](CCCNC(=N)N)C(N)=O)cc(=O)oc2c1 [ES001, Mca-Pro-Leu-Gly-Leu-Dpa-Ala-Arg-NH2] (Mca-PLGL[Dap](Dnp)AR-NH2) |  |  |  |  |  |  |  |  |  |  |  |  | Km [1]: 4.9 ± 0.4 µM; Km [2]: 4 ± 1 µM
2 | CC(=O)NC(CC(C)C)C(=O)CC(C)P(=O)(O)CC(Cc1ccccc1)C(=O)O (stereo not shown) [H-3] | weak or no inhibition | weak or no inhibition | weak or no inhibition | weak or no inhibition | weak or no inhibition | weak or no inhibition |  |  |  |  |  |  | Ki ([3]; MMP-9(A), substrate ES001 4.0 µM, 0.1 M Hepes pH 7.5, 37°C, 1.0% DMSO, Ki from IC50 (Eqn. 3)): ≥ 100 µM; Ki ([4]; MMP-9(MT), substrate ES001 4.0 µM, 0.1 M Hepes pH 7.5, 37°C, 1.0% DMSO, Ki from IC50 (Eqn. 3)): ≥ 100 µM; pre-incubation time after which inhibition stabilizes (slow binding) ([5]; MMP-14, 100 μM compound, pre-incubation at room temperature): 15 min; Ki ([5]; MMP-14, substrate ES001 4.0 µM, 0.1 M Hepes pH 7.5, 37°C, 1.0% DMSO, Ki from IC50 (Eqn. 3)): ≥ 100 µM; Ki ([6]; read-out: Ki ± s.d., PLN, substrate ES005 4.0 µM, 0.1 M Hepes pH 7.5, 37°C, 1.0% DMSO, Ki from IC50 (Eqn. 3)): ≥ 100 µM; Ki ([7]; TLN, substrate ES005 4.0 µM, 0.1 M Hepes pH 7.5, 37°C, 1.0% DMSO, Ki from IC50 (Eqn. 3)): ≥ 100 µM; Ki ([8]; read-out: Ki ± s.d., ALN, substrate ES005 4.0 µM, 0.1 M Hepes pH 7.5, 37°C, 1.0% DMSO, Ki from IC50 (Eqn. 3)): ≥ 100 µM
3 | CC(NC(=O)OCc1ccccc1)P(=O)(O)CC(Cc1ccccc1)C(=O)O (stereo not shown) [H-4] | weak or no inhibition | weak or no inhibition | weak or no inhibition | weak or no inhibition | weak or no inhibition | weak or no inhibition | ≥ 100 | ≥ 100 | ≥ 100 | ≥ 100 | ≥ 100 | ≥ 100 | 
4 | CCOC(=O)C(CO)CP(=O)(O)C(Cc1ccccc1)NC(=O)OCc1ccccc1 (stereo not shown) [H-5] | weak or no inhibition | weak or no inhibition | weak or no inhibition | weak or no inhibition | weak or no inhibition | weak or no inhibition | ≥ 100 | ≥ 100 | ≥ 100 | ≥ 100 | ≥ 100 | ≥ 100 | 
5 | CNC(=O)[C@H](Cc1c[nH]c2ccccc12)NC(=O)[C@@H](CC(=O)NO)CC(C)C [galardin] |  |  |  |  |  |  |  |  |  |  |  |  | inhibition of TLN (stopping of substrate cleavage) [9]: not sufficient to completely inhibit
